Measurements published in ChEMBL document CHEMBL1144295, “Active site directed inhibitors of replication-specific bacterial DNA polymerases” (Bioorg Med Chem Lett, 2005).
Values belong to the compound of their own block, whether it stands above or below them.

Legend:
[1] = molecular target: T1, DNA polymerase III PolC-type (Bacillus subtilis (strain 168), UniProt P13267); assay: Inhibitory constant against DNA polymerases IIIC produced by Bacillus subtilis; (a)
[2] = molecular target: T2, DNA polymerase III subunit alpha (Escherichia coli K-12, UniProt P10443); assay: Inhibition against DNA polymerases IIIE from Escherichia coli; (a); IN=<10% inhibition at highest concentration tested
T2 sequence (P10443 whole entry): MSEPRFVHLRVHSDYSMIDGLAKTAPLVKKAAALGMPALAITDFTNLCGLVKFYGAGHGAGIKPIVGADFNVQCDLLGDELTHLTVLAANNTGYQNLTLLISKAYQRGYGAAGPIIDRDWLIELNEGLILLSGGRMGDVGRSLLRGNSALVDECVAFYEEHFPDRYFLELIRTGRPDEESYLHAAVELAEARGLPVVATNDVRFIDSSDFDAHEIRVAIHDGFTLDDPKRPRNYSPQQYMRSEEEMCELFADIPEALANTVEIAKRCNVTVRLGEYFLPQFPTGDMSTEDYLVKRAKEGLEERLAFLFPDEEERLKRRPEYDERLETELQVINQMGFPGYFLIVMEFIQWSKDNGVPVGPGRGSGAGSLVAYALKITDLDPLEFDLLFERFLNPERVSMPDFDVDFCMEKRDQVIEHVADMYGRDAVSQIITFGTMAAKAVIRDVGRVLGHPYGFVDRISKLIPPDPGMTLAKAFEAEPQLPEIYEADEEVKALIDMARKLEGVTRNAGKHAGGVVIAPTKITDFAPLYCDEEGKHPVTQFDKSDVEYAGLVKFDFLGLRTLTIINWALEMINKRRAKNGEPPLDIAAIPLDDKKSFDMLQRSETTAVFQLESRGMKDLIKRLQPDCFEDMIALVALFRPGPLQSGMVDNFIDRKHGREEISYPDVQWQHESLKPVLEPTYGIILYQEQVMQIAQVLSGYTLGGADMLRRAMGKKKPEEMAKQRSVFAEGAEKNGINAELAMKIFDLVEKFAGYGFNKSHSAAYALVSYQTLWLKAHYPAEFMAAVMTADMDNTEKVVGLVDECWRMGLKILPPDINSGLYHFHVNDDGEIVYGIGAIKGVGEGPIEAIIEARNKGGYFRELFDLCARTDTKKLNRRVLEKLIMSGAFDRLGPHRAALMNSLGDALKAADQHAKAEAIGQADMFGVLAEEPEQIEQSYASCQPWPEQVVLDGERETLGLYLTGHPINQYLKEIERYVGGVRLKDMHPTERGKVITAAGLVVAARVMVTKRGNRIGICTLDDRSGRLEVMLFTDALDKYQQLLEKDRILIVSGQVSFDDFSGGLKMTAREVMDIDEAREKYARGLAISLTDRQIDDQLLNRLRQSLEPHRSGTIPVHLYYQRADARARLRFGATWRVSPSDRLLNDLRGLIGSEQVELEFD

[3] = molecular target: T3, DNA polymerase III subunit alpha (Bacillus subtilis (strain 168), UniProt O34623); assay: Inhibition of DNA polymerases IIIE from Bacillus subtilis; (a); IN=<10% inhibition at highest concentration tested
T3 sequence (O34623 whole entry): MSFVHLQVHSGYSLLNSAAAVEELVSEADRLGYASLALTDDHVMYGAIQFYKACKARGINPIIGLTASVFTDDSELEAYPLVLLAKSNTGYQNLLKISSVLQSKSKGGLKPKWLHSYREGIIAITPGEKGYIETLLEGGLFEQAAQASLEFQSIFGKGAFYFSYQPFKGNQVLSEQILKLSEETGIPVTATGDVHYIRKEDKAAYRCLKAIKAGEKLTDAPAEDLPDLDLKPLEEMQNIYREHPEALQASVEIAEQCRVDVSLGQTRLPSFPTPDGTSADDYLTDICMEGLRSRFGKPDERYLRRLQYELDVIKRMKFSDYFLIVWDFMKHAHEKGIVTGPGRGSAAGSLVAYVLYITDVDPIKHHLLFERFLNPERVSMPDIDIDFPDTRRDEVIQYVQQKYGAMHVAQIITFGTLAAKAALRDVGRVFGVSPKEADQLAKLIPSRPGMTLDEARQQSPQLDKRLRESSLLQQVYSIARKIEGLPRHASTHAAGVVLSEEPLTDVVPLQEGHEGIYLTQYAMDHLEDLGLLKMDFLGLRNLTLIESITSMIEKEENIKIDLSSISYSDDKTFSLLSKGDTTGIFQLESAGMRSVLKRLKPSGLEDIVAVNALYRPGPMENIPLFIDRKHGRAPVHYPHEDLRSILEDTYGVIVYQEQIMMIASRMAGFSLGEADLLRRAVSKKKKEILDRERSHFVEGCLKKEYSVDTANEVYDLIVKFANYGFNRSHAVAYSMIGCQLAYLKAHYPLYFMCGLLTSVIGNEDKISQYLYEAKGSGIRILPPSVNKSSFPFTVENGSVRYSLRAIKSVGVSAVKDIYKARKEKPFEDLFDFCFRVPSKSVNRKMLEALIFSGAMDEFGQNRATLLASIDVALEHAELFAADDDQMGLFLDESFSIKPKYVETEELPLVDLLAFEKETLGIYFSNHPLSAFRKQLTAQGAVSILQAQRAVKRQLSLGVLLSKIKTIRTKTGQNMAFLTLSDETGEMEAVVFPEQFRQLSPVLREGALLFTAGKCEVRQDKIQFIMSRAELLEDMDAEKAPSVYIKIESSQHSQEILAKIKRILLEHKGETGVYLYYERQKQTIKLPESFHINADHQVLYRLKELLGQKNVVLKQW

[4] = molecular target: T1, DNA polymerase III PolC-type; assay: Inhibition of DNA polymerases IIIC produced by Bacillus subtilis; (a); IN=<10% inhibition at highest concentration tested
[5] = molecular target: T2, DNA polymerase III subunit alpha; assay: Inhibitory constant against DNA polymerases IIIE from Escherichia coli; (a)

T1 sequence (P13267 whole entry): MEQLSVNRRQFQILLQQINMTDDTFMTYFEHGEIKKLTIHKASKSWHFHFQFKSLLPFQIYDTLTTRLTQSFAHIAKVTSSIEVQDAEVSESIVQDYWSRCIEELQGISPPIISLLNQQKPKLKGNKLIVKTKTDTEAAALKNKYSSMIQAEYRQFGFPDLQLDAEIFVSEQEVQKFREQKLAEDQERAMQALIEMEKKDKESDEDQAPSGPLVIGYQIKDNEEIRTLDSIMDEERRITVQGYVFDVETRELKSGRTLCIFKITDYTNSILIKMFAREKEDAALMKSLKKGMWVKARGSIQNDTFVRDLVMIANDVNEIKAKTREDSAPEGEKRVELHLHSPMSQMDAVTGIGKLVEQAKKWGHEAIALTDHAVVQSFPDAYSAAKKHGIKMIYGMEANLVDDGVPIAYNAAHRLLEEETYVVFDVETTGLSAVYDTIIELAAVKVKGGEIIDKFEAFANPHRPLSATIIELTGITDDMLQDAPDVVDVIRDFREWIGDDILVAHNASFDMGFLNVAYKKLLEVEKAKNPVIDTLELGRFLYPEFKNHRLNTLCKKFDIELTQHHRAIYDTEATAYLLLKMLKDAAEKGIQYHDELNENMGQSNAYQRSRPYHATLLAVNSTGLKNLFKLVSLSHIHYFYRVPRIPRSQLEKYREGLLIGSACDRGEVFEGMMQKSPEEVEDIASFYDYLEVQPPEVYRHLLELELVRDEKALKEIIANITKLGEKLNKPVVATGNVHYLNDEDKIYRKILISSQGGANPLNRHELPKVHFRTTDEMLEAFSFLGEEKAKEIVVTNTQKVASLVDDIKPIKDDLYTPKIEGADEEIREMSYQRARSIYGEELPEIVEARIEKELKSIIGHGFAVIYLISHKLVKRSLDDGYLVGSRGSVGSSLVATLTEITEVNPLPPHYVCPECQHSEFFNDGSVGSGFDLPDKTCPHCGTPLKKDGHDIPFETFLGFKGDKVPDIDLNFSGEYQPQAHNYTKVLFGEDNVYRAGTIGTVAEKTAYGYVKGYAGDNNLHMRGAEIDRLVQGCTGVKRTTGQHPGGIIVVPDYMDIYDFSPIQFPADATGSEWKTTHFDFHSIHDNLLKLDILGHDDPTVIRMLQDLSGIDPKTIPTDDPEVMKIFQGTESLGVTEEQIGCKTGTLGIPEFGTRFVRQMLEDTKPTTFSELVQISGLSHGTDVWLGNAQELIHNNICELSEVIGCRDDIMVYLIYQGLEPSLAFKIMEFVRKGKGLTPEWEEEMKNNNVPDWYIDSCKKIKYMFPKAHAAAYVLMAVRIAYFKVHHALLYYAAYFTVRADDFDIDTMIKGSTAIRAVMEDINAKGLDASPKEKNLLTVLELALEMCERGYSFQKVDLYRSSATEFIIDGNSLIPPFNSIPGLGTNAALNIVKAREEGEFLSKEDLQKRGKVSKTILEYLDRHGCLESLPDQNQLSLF

SMILES: CS(=O)(=O)CCCCCn1cnc2nc(NCc3ccc(Cl)c(Cl)c3)nc(O)c21
Ki [1]: 280 nM

SMILES: CCc1cc(Nc2nc(O)c3[nH]cnc3n2)ccc1C
inhibition [2]: < 10% | Ki [1]: 2700 nM

SMILES: CC(=O)O[C@H](C)CCCCn1cnc2nc(NCc3ccc(Cl)c(Cl)c3)[nH]c(=O)c21
Ki [1]: 80 nM

inhibition [3]: < 10% | inhibition [2]: < 10% | inhibition [4]: < 10%
SMILES: CCc1cc(Nc2nc(O)c3ncn(CCCCO)c3n2)ccc1C

SMILES: CCOCCn1cnc2c(=O)[nH]c(NCc3ccc(Cl)c(Cl)c3)nc21
Ki [1]: 116000 nM

SMILES: O=c1[nH]c(NCc2ccc(Cl)c(Cl)c2)nc2ncn(CCOCCO)c12
Ki [1]: 370 nM

SMILES: OCCCCn1cnc2c(O)nc(NCc3ccc(Cl)c(Cl)c3)nc21
Ki [1]: 712000 nM

SMILES: C[C@@H](O)CCCCn1cnc2nc(NCc3ccc(Cl)c(Cl)c3)[nH]c(=O)c21
Ki [1]: 52 nM

SMILES: CCOCCn1cnc2nc(NCc3ccc(Cl)c(Cl)c3)[nH]c(=O)c21
Ki [1]: 330 nM

SMILES: O=c1cc(NCc2ccc(Cl)c(CCl)c2)[nH]c(=O)[nH]1
Ki [1]: 420 nM

SMILES: Oc1[nH]c(NCc2ccc(Cl)c(Cl)c2)nc2ncnc1-2
Ki [1]: 720 nM

inhibition [3]: < 10% | inhibition [2]: < 10%
SMILES: CCc1cc(Nc2nc(O)c3c(ncn3CCCCO)n2)ccc1C

SMILES: CCOC(=O)CCCn1cnc2nc(NCc3ccc(Cl)c(Cl)c3)[nH]c(=O)c21
Ki [1]: 150 nM

SMILES: CCc1cc(Nc2cc(=O)[nH]c(=O)[nH]2)ccc1C
Ki [5]: > 323000 nM | Ki [1]: 310 nM

SMILES: COCCCCCn1cnc2nc(NCc3ccc(Cl)c(Cl)c3)[nH]c(=O)c21
Ki [1]: 70 nM

SMILES: C[S+]([O-])CCCCCn1cnc2nc(NCc3ccc(Cl)c(Cl)c3)nc(O)c21 (stereo unspecified)
Ki [1]: 93 nM

SMILES: O=C(O)CCCn1cnc2nc(NCc3ccc(Cl)c(Cl)c3)nc(O)c21
Ki [1]: 170 nM

SMILES: CC(C)C(=O)OCCCCCn1cnc2nc(NCc3ccc(Cl)c(Cl)c3)[nH]c(=O)c21
Ki [1]: 370 nM

SMILES: CCOC(=O)CCCn1cnc2c(O)nc(NCc3ccc(Cl)c(Cl)c3)nc21
Ki [1]: 825000 nM

SMILES: O=C(O)CCCn1cnc2c(=O)[nH]c(NCc3ccc(Cl)c(Cl)c3)nc21
Ki [1]: 28000 nM

SMILES: CSCCCCCn1cnc2nc(NCc3ccc(Cl)c(Cl)c3)[nH]c(=O)c21
Ki [1]: 230 nM
